Target: Glycogen synthase kinase-3 beta (Homo sapiens, UniProt P49841)
Experiment: Biochemical Assay: The ingredients required for this purpose are mixed in a black 384-well microtiter plate with transparent base (from Greiner, catalog number 781092). The requirements in this connection for each well of the 384-well microtiter plate are 5 nM GSK3β (from Upstate, catalog number xy), 40 μM GSK3β substrate GSM (sequence H-RRRPASVPPSPSLSRHS-(pS)-HQRR, from Upstate, catalog number 2-533), 30 μM nicotinamide adenine dinucleotide NADH (Roche Diagnostics, catalog number 10107735), 50 μM adenosine triphosphate ATP (from Sigma, catalog number A7966) and 2 mM phosphoenolpyruvate (from Roche, catalog number 128112). The required reaction buffer in which the biochemical reaction takes place consists of 50 mM Trizma hydrochloride Tris-HCl pH: 7.5 (from Sigma, catalog number T3253), 5 mM magnesium chloride MgCl2 (from Sigma, catalog number M8266), 0.2 mM DL-dithiothreitol DTT (from Sigma, catalog number D9779), 2 mM ethylenediaminetetraacetic acid EDTA (from Sigma, catalog number E6758), 0.01% Triton X-100 (from Sigma, catalog number T8787) and 0.05% bovine serum albumin BSA (from Sigma, catalog number B4287). Active substances are dissolved in dimethyl sulfoxide DMSO (from Sigma, catalog number D8418) in a concentration of 10 mM. […]

Sequence of Glycogen synthase kinase-3 beta (P49841 whole entry): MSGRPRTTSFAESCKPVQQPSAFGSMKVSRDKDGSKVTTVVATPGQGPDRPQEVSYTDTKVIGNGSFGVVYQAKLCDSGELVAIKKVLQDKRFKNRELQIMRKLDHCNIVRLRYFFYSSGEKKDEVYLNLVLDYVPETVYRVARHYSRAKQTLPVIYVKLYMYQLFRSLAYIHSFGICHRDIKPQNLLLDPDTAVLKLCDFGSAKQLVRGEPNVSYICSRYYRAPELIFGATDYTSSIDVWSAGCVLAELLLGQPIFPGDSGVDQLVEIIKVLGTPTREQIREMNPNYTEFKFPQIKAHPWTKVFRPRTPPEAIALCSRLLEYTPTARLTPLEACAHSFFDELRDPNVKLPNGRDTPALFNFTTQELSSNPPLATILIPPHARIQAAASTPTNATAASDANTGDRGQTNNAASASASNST

Compound: N#Cc1sc(NCCNc2nc(-c3ccc(Cl)cc3Cl)cn3ccnc23)nc1N
- IC50: 16 nM

Reference: ChEMBL document CHEMBL3638705, “Imidazo-, pyrazolopyrazines and imidazotriazines and their use” (2013)
